Results: publication PMC12526212, “Novel Isolongifolenone-Based Caprolactam Derivatives as Potential Anticancer Agents via the p53/mTOR/Autophagy Pathway” (Molecules, 2025)

Legend:
MCF-7 cells [1] = test: Annexin V/PI apoptosis assay by flow cytometry; format: cell-based, human; settings: Figure 6A, in comparison with control
Protocol: The ability of drugs to induce cancer cell apoptosis is a key indicator of their chemotherapeutic potential. […] To examine the apoptotic effects of E10, an Annexin V-FITC dual-staining assay (with flow cytometric analysis) was performed. As shown in Figure 3A (also Figure 3C), treatment with increasing concentrations of E10 induced a marked elevation in apoptotic cell populations.
Autophagy has bidirectional regulation effects on cell survival. To confirm the role of autophagy in E10-induced cell death, 3-MA was used as an autophagy blocker.
MCF-7 cells were seeded at a density of 6 × 10^5 cells per well in 12-well plates and incubated in a 37 °C, 5% CO2 incubator for 24 h. After treatment with different concentrations of compound E10, the cells were washed with PBS two times, collected by trypsin enzymic digestion and centrifugation, and the collected cells were subsequently stained with 5 µL Annexin V-APC (YSRIBIO-C1084) and 5 µL PI for 10 min in the dark conditions. The cell apoptosis was measured with the flow cytometry (BD), and the data were analyzed by flowjo 10.6 software.

MCF-7 cells [2] = test: Monodansylcadaverine (MDC) staining assay for autophagy; format: cell-based, human; settings: 24 h, compared with control; 3-MA as co-treatment with E10
Protocol: To investigate whether E10 induced autophagy in MCF-7 cells, we performed Monodansylcadaverine (MDC) staining, transmission electron microscopy (TEM), and Western blot analysis to evaluate autophagy-related markers. MDC is a fluorescent probe commonly used to detect the formation of autophagic vacuoles, as it specifically labels autophagosomes.
MDC is a staining indicator for the formation of autophagosome. MCF-7 cells were seeded at a density of 2 × 10^5 cells per well in 6-well plates. MCF-7 cells were inoculated into a 6-well plate, and the cells were treated with E10 for 24 h. The treated cells were washed twice with buffer and then stained with MDC (Beijing Solarbio Science & Technology Co., Ltd., Beijing, China) for 40 min. The cells were then detected under a fluorescence microscope (Carl Zeiss, Jena, Germany).

MCF-7 xenograft = test: Zebrafish MCF-7 xenograft model; format: in vivo; settings: 48 h, compared with PBS control; Dox 1.0 μM
Excerpt: Zebrafish have become a well-established model for both anticancer drug discovery and toxicity evaluation. This animal model affords several unique advantages, including rapid development, optical transparency, and genetic conservation with humans. These features make zebrafish particularly suitable for high-throughput in vivo screening and mechanistic studies in oncology research. Tumor burden in zebrafish xenografts is commonly quantified from Dil/DiI-labeled fluorescence area or integrated intensity, which correlates with cell number and treatment response. To assess the in vivo antitumor efficacy of compound E10, we established a zebrafish xenograft model. Briefly, CM-Dil-labeled MCF-7 cells (showing red fluorescence) were microinjected into the yolk sacs of zebrafish embryos. The xenografted zebrafish were then randomly assigned into five groups: three E10-treatment groups (0.5 µg/mL, 1.0 µg/mL, and 2.0 µg/mL), a Doxorubicin (Dox) positive control group, and a PBS negative control group.
All experimental procedures were approved by ACUC of Shandong Academy of Sciences (Animal Care and Use Committee). Wild-type AB of zebrafish were obtained from Biology Institute, Qilu University of Technology. The embryos were incubated in special embryonic medium (0.17 mM KCl, 5.0 mM NaCl, 0.4 mM CaCl2, and 0.16 mM MgSO4) at 28 °C. 48 h-old zebrafish embryos were microinjected with CM-Dil labelled MCF-7 cells under stereomicroscopy. After injection, zebrafish embryos with the same injection spot were randomly planted on a six-well plate. These xenograft zebrafish were sorted into four groups of about 15–20 zebrafish each and treated with 0.5, 1.0, 2.0 μg/mL of compound E10 for 48 h, 1.0 μM doxorubicin as a positive control group. After treatment, the fluorescence intensity of living cells was examined with laser confocal microscopy (Olympus, Tokyo, Japan).

SMILES | cell apoptosis with or without autophagy blocker 3-MA (MCF-7 cells [1]) | MDC staining, autophagosome formation (MCF-7 cells [2]) | fluorescence intensity of xenograft (MCF-7 xenograft)
Cn1cnc(N)c2ncnc1-2 [3-MA, 3-methyladenine, reference compound] | reversed E10-induced apoptosis | marked reduction in fluorescence intensity | 
COc1cccc2c1C(=O)c1c(O)c3c(c(O)c1C2=O)C[C@@](O)(C(=O)CO)C[C@@H]3O[C@H]1C[C@H](N)[C@H](O)[C@H](C)O1 [Dox, Doxorubicin, reference compound] |  |  | notable reduction in fluorescence intensity
